This is an account of results in US5468472A, “Topical process for lightening the skin or treating pigmental blemishes using a composition containing 4-thioresorcin derivatives” (L'Oreal, priority 1993, dated 1995).

The subject of the test is fungal tyrosinase. As to the kind of experiment: in vitro inhibition test of the activity of tyrosinase (dopachrome formation, 475 nm). The format is biochemical. The settings on record: inhibitor at 50 mol % with respect to tyrosine; lowering of maximum dopachrome (OD 475 nm at plateau) vs no inhibitor; pH 6.5, 25° C. The source says:
According to this test, the amount of dopachrome formed during the chain of reactions of conversion of tyrosine to melanins is monitored by visible spectrometry at 475 nm.
The concentration of dopachrome formed with time in the presence and in the absence of the inhibitor thus measured.
The inhibitor concentrations are set at 50 mol % with respect to the concentration of tyrosine in the reaction medium.
The inhibition effect is expressed by the lowering in the maximum amount of dopachrome formed (optical density value at 475 nm read at the plateau of the curve) with respect to the amount obtained in the absence of inhibitor.
A - 0.1M Phosphate buffer, pH=6.5 (1% Tween 20)
B - 2.10^-3 M Mother solution of L-tyrosine in A
C - 10^-4 M Mother solution of L-dopa in A
D - Mother solution of fungal tyrosinase in A containing 2,400 units/ml
E - 10^-2 M Mother solution of the inhibitor in A (Solutions C and D are to be prepared on the day)
reference cell: 3 ml of A
homogenize and equilibrate at 25° C.
mix rapidly and observe the kinetics by measuring the absorbence at 475 nm as a function of time.
In the case of `CC(C)Sc1ccc(O)cc1O`, the “% change in maximum dopachrome vs no inhibitor” value (“% change … vs no inhibitor” for short) is recorded as -84%.
The value for `Oc1ccc(SCCSc2ccc(O)cc2O)c(O)c1` was -79%; that for `Oc1ccc(SCc2ccccc2)c(O)c1` was -95%.
For `CCOC(=O)CSc1ccc(O)cc1O`, the “% change … vs no inhibitor” value was -94%.
For `CSc1ccc(O)cc1O`, the “% change … vs no inhibitor” value was -90%.
The value for `Oc1ccc(SCCCN2CCOCC2)c(O)c1` was -65%.
With `Oc1ccc(O)cc1` [hydroquinone, reference compound], the “% change … vs no inhibitor” value is listed as -33%.
Turning to `CCCSc1ccc(O)cc1O`, the “% change … vs no inhibitor” value is reported as -76%.
`CCSc1ccc(O)cc1O`: the “% change … vs no inhibitor” value was -88%.
